The values below come from US11072591B2, “Tetrazole compounds and their use in the treatment of tuberculosis” (GLAXOSMITHKLINE INTELLECTUAL PROPERTY DEVELOPMENT LIMITED, priority 2017, dated 2021).

Values after ≈ are worked out from the molar mass of the structure shown. Where two headings read alike, the source gives them in different places.

In the assay the test system is M. tuberculosis H37Rv. Put plainly: Mycobacterium tuberculosis H37Rv Inhibition Assay (Whole Cell Assay), MIC. It counts as cell-based.
Where [1] appears, read: 144 h, M. tuberculosis H37Rv, Middlebrook 7H9 + ADC, 37° C. six days, resazurin readout, read-out: MIC_H37Rv.
The mark [2] stands for this setting: M. tuberculosis H37Rv whole cell assay, value from repeated testing of the compound, read-out: MIC.

With `O=S(=O)(NCCO)c1ccc(-c2nnn(Cc3ccc(Cl)cn3)n2)cc1` [Example 18, 4-(2-((5-chloropyridin-2-yl)methyl)-2H-tetrazol-5-yl)-N-(2-hydroxyethyl)benzenesulfonamide], the MIC under setting [1] is below 0.1 µM.
As for `CNS(=O)(=O)c1ccc(-c2nnn(Cc3ccncc3)n2)cc1OC` [Example 51, 2-methoxy-N-methyl-4-(2-(pyridin-4-ylmethyl)-2H-tetrazol-5-yl)benzenesulfonamide], the MIC under setting [1] fell in the range of 1 to 5 µM.
Regarding `O=S(=O)(NCCO)c1ccc(-c2nnn(Cc3ccc(F)cn3)n2)cc1F` [Example 75, 2-fluoro-4-(2-((5-fluoropyridin-2-yl)methyl)-2H-tetrazol-5-yl)-N-(2-hydroxyethyl) benzenesulfonamide], the MIC under setting [1] was below 0.1 µM and the MIC under setting [2] came to 0.16 µM (≈ 0.0634 µg/mL).
As for `COc1cc(-c2nnn(CC3CCC(F)(F)CC3)n2)ccc1S(=O)(=O)NCC(N)=O` [Example 95, 2-((4-(2-((4,4-difluorocyclohexyl)methyl)-2H-tetrazol-5-yl)-2-methoxyphenyl)sulfonamido)acetamide], under setting [1], the MIC lay in the range of 1 to 5 µM.
Same read-out and setting: the same measure for `C[C@@H](O)CNS(=O)(=O)c1ccc(-c2cn(Cc3ccc(F)cc3)nn2)cc1` [Example 70, (R)-4-(1-(4-fluorobenzyl)-1H-1,2,3-triazol-4-yl)-N-(2-hydroxypropyl) benzenesulfonamide]: below 0.1 µM.
`O=S(=O)(NCCO)c1ccc(-c2nnn(CC3CCOCC3)n2)cc1F` [Example 78, 2-fluoro-N-(2-hydroxyethyl)-4-(2-((tetrahydro-2H-pyran-4-yl)methyl)-2H-tetrazol-5-yl)benzenesulfonamide]: the MIC under setting [1] is below 0.1 µM.
Still for that read-out and setting: in the case of `NC(=O)CNS(=O)(=O)c1ccc(-c2nnn(Cc3ccc(F)cn3)n2)cc1` [Example 38] it was below 0.1 µM; in that of `CCNS(=O)(=O)c1ccc(-c2nnn(Cc3ccncc3)n2)cc1` [Example 5, N-ethyl-4-(2-(pyridin-4-ylmethyl)-2H-tetrazol-5-yl)benzenesulfonamide], 10 to 25 µM.
Turning to `CCOc1ccc(Cn2nnc(-c3ccc(S(=O)(=O)NCCO)cc3)n2)cc1` [Example 99], under setting [1], the MIC is below 0.1 µM.
On the same count and under the same terms, in the case of `O=S(=O)(NCCO)c1ccc(-c2nnn(Cc3ccc(C(F)(F)F)cc3)n2)cc1` [Example 98] it was 5 to 10 µM; in that of `COc1cc(-c2nnn(Cc3ccc(F)cc3)n2)ccc1S(=O)(=O)NCCO` [Example 47, 4-(2-(4-fluorobenzyl)-2H-tetrazol-5-yl)-N-(2-hydroxyethyl)-2-methoxybenzenesulfonamide], below 0.1 µM.
In the case of `O=S(=O)(NCCO)c1ccc(-c2nnn(Cc3cccnc3)n2)cc1` [Example 102, N-(2-hydroxyethyl)-4-(2-(pyridin-3-ylmethyl)-2H-tetrazol-5-yl)benzenesulfonamide], the MIC under setting [1] was below 0.1 µM.
The same measure, in the same setting: in the case of `COc1ccc(Cn2nnc(-c3ccc(S(=O)(=O)NCCO)cc3)n2)nc1` [Example 31] it was 1 to 5 µM; in that of `COC(=O)CNS(=O)(=O)c1ccc(-c2nnn(Cc3ccncc3)n2)cc1` [Example 44], 5 to 10 µM.
As for `O=S(=O)(NCCO)c1ccc(-c2nnn(Cc3ccc(F)cn3)n2)cc1` [Example 29, 4-(2-((5-fluoropyridin-2-yl)methyl)-2H-tetrazol-5-yl)-N-(2-hydroxyethyl)benzenesulfonamide], the MIC is, setting by setting: under setting [1], below 0.1 µM; under setting [2], 0.07 to 0.16 µM (≈ 0.0265 to 0.0605 µg/mL).
Turning to `O=S(=O)(NCC(O)CO)c1ccc(-c2nnn(Cc3ccc(F)cc3)n2)cc1` (centres unmarked) [Example 17], under setting [1], the MIC was in the range of 5 to 10 µM.
As for `Cc1ccc(Cn2nnc(-c3ccc(S(=O)(=O)NCCO)cc3)n2)nc1` [Example 32], under setting [1], the MIC is 1 to 5 µM.
For `CNS(=O)(=O)c1ccc(-c2nnn(Cc3ccncc3)n2)cc1` [Example 4, N-methyl-4-(2-(pyridin-4-ylmethyl)-2H-tetrazol-5-yl)benzenesulfonamide], under setting [1], the MIC fell in the range of 1 to 5 µM.
For `O=S(=O)(NCCO)c1ccc(-c2cn(Cc3ccc(F)cn3)nn2)cc1` [Example 62, (4-(1-((5-fluoropyridin-2-yl)methyl)-1H-1,2,3-triazol-4-yl)-N-(2-hydroxyethyl)benzenesulfonamide)], under setting [1], the MIC was in the range of 1 to 5 µM.
Regarding `COc1ccc(Cn2nnc(-c3ccc(S(=O)(=O)NCCO)cc3)n2)cc1F` [Example 30], under setting [1], the MIC was below 0.1 µM.
Regarding `NC(=O)CNS(=O)(=O)c1ccc(-c2nnn(Cc3ccncc3)n2)cc1` [Example 46, 2-(4-(2-(pyridin-4-ylmethyl)-2H-tetrazol-5-yl)phenylsulfonamido)acetamide], under setting [1], the MIC is below 0.1 µM.
In the case of `O=S(=O)(NCCO)c1ccc(-c2nnn(CC3CCCCO3)n2)cc1` (racemic) [Example 7, N-(2-hydroxyethyl)-4-(2-((tetrahydro-2H-pyran-2-yl)methyl)-2H-tetrazol-5-yl)benzenesulfonamide], the MIC under setting [1] is below 0.1 µM.
Turning to `NC(=O)CNS(=O)(=O)c1ccc(-c2nnn(CC3CCC(F)(F)CC3)n2)cc1` [Example 39], the MIC under setting [1] was below 0.1 µM.
`CCc1ccc(Cn2nnc(-c3ccc(S(=O)(=O)NCCO)cc3)n2)cc1` [Example 19]: the MIC under setting [1] fell in the range of 1 to 5 µM.
On to `COc1cc(-c2nnn(Cc3ccc(F)cc3)n2)ccc1S(=O)(=O)NCC(N)=O` [Example 53, 2-(4-(2-(4-fluorobenzyl)-2H-tetrazol-5-yl)-2-methoxyphenylsulfonamido)acetamide], for which the MIC under setting [2] is 0.04 µM (≈ 0.0168 µg/mL).
In the case of `C[C@@H](O)CNS(=O)(=O)c1ccc(-c2nnn(Cc3ccc(F)cc3)n2)cc1` [Example 24], the MIC under setting [1] is below 0.1 µM.
Still for that read-out and setting: in the case of `NC(=O)CNS(=O)(=O)c1ccc(-c2nnn(CC3CCCCO3)n2)cc1` (centres unmarked) [Example 96, 2-((4-(2-((tetrahydro-2H-pyran-2-yl)methyl)-2H-tetrazol-5-yl)phenyl)sulfonamido)acetamide] it was below 0.1 µM; in that of `COc1cc(-c2nnn(Cc3ccncc3)n2)ccc1S(=O)(=O)NCCO` [Example 48, N-(2-hydroxyethyl)-2-methoxy-4-(2-(pyridin-4-ylmethyl)-2H-tetrazol-5-yl)benzenesulfonamide], 1 to 5 µM.
As to `Cc1ccc(Cn2nnc(-c3ccc(S(=O)(=O)NCCO)cc3)n2)cn1` [Example 101, N-(2-hydroxyethyl)-4-(2-((6-methylpyridin-3-yl)methyl)-2H-tetrazol-5-yl)benzenesulfonamide], the MIC under setting [1] is below 0.1 µM.
As for `COc1cc(-c2nnn(Cc3ccc(F)cn3)n2)ccc1S(=O)(=O)NCCO` [Example 50, 4-(2-((5-fluoropyridin-2-yl)methyl)-2H-tetrazol-5-yl)-N-(2-hydroxyethyl)-2-methoxybenzenesulfonamide], the MIC under setting [1] is 1 to 5 µM.
Same read-out and setting: in the case of `C[C@@H](c1ccc(F)cn1)n1nnc(-c2ccc(S(=O)(=O)NCCO)cc2)n1` [Example 111] it was 1 to 5 µM.
In the case of `O=S(=O)(NCCO)c1c(F)cc(-c2nnn(Cc3ccc(F)cn3)n2)cc1F` [Example 87, 2,6-difluoro-4-(2-((5-fluoropyridin-2-yl)methyl)-2H-tetrazol-5-yl)-N-(2-hydroxyethyl)benzenesulfonamide], the MIC under setting [2] was at most 0.04 µM.
Turning to `Cc1cnc(Cn2nnc(-c3ccc(S(=O)(=O)NCC#N)cc3)n2)cn1` [Example 91, N-(cyanomethyl)-4-(2-((5-methylpyrazin-2-yl)methyl)-2H-tetrazol-5-yl)benzenesulfonamide], the MIC under setting [1] was below 0.1 µM.
